Values of other authors in patent publication US6107059A, “Peptide library and screening method” (Affymax Technologies N.V., priority 1992, dated 2000).

Target: streptavidin (Streptomyces avidinii, UniProt P22629)
Details: comparison in words, no number given

Sequence of streptavidin (P22629 25-183): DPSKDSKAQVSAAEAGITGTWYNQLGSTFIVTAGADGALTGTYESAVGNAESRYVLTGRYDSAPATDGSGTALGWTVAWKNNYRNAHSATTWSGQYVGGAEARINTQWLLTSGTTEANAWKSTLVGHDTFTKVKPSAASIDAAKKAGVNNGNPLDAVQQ

N=C1N[C@H]2[C@H](CS[C@H]2CCCCC(=O)O)N1 [iminobiotin]
Kd for streptavidin, compared with biotin: much lower Kd
